In data set [1] the target is AR ligand-binding domain (AR LBD) (Homo sapiens (Human), UniProt P10275). In words: Gal4-luciferase reporter assay, Gal-AR LBD in HeLa cells. It counts as cell-based. From the text: In order to test the effect of ligands on the AR ligand-binding domain (AR LBD), a Gal4-luciferase reporter assay was used. Briefly, the AR LBD is expressed as a fusion with the Gal4 transcription factor, which binds to the Gal4 reporter DNA. Upon activation with agonist hormone (DHT), the Gal-AR LBD binds to the Gal4 reporter gene, which in turn drives the transcription (and subsequently translation) of the reporter luciferase. The effect of antiandrogens (competitive antagonists) on this process is measured by quantifying the amount of luciferase activity after 24 hours in the presence of varying concentrations of antiandrogens. From these values, an IC50 for each antagonist is calculated. Experimentally, Hela cells were maintained in Dulbecco's modified Eagle's medium H-21 4.5 g/L glucose, containing 10% steroid depleted fetal bovine serum, 50 units/mL penicillin. For transfection, (1×10^5) cells per well were plated and incubated overnight. […] Cells were induced with 1 nM DHT and 0.1 nM-30 uM test compounds after 3 hr and then incubated over night. Cells were collected, and pellets were lysed in 100 μL of 100 mM Tris-HCl (pH 7.5) containing 0.1% Triton X-100. Luciferase and β-galactosidase activities were measured using the Luciferase Assay System (Promega) and Galacto-Light Plus-galactosidase reporter gene assay system (Applied Biosystems), according to the manufacturer's instructions.
Chain of AR ligand-binding domain (AR LBD) (P10275 669-900): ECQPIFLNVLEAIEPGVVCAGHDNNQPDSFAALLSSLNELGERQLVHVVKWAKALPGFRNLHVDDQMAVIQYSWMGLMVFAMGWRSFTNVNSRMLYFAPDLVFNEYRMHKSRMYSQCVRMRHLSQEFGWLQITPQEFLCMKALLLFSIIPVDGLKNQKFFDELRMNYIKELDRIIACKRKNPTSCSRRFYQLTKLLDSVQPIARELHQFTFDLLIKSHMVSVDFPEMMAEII
(In general: Reporter assays use an easily measured gene product as a stand-in for the process of interest.)

Another data set concerns the target full length AR (Homo sapiens (Human), UniProt P10275). In words: mmTV-luciferase reporter assay, full length AR in HeLa cells. Type of data set: cell-based. The protocol:
In order to test the effect of antiandrogens on full length AR, a mmTV-luciferase reporter assay was used. An AR-response element is contained within the mmTV sequence and drives the expression of luciferase. The effect of antiandrogens (competitive antagonists) on this process is measured by quantifying the amount of luciferase activity after 24 hours in the presence of varying concentrations of antiandrogens. From these values, an IC50 for each antagonist is calculated. Experimentally, HeLa cells were maintained in Dulbecco's modified Eagle's medium H-21 4.5 g/L glucose, containing 10% steroid depleted fetal bovine serum, 50 units/mL penicillin. For transfection, (1×10^5) cells per well were plated and incubated overnight. […] Cells were induced with 1 nM DHT and 0.1 nM-30 uM compounds after 3 hrs and then incubated overnight. Cells were collected, and pellets were lysed in 100 μL of 100 mM Tris-HCl (pH 7.5) containing 0.1% Triton X-100. Luciferase and β-galactosidase activities were measured using the Luciferase Assay System (Promega) and Galacto-Light Plus-galactosidase reporter gene assay system (Applied Biosystems), according to the manufacturer's instructions.

The conditions of data set [2]: in vivo; cited from earlier work.
In data set [3] the target is endogenous full length AR (Homo sapiens (Human), UniProt P10275, T878A). Description: mmTV-luciferase reporter assay, endogenous AR in LNCaP cells. It counts as cell-based. The note with it: 10 nM DHT, read-out: LVCaP data.
Chain of endogenous full length AR (P10275 whole entry T878A): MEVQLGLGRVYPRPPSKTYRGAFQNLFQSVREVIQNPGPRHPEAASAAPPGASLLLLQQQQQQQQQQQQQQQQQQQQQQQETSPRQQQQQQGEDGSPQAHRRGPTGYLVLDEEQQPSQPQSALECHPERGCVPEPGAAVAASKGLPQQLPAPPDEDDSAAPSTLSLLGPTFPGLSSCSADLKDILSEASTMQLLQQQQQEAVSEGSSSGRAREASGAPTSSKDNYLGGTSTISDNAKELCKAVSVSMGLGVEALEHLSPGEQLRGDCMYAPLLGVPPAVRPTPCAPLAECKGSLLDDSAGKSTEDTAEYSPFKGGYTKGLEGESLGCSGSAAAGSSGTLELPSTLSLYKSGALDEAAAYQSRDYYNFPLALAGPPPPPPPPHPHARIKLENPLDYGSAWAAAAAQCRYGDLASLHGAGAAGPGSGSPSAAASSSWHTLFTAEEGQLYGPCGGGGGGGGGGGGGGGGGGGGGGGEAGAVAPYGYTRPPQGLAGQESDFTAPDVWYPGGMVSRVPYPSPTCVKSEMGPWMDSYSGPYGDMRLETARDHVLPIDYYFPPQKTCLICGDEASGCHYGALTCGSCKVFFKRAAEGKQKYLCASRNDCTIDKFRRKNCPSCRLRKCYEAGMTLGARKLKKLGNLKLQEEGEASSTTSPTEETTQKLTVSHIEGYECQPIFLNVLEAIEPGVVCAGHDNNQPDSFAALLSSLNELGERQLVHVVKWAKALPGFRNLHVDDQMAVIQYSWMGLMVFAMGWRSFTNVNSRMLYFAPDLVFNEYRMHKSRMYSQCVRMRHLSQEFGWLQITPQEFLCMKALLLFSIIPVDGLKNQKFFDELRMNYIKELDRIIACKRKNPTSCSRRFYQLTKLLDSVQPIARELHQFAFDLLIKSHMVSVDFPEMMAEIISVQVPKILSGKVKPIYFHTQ
[4] abbreviates: in relationship to the experimental casodex data.
Setting [5] is: full length AR, mmTV-luciferase reporter, HeLa cells, 1 nM DHT, read-out: FL IC50.
Setting [6] is: Gal-AR LBD, Gal4-luciferase reporter, HeLa cells, 1 nM DHT, read-out: LBD IC50.

SMILES strings stand for the structures. Read-outs that look alike come from different tables or passages of the source.

Chain of full length AR (P10275 other isoform, or with tags, fused parts or gaps): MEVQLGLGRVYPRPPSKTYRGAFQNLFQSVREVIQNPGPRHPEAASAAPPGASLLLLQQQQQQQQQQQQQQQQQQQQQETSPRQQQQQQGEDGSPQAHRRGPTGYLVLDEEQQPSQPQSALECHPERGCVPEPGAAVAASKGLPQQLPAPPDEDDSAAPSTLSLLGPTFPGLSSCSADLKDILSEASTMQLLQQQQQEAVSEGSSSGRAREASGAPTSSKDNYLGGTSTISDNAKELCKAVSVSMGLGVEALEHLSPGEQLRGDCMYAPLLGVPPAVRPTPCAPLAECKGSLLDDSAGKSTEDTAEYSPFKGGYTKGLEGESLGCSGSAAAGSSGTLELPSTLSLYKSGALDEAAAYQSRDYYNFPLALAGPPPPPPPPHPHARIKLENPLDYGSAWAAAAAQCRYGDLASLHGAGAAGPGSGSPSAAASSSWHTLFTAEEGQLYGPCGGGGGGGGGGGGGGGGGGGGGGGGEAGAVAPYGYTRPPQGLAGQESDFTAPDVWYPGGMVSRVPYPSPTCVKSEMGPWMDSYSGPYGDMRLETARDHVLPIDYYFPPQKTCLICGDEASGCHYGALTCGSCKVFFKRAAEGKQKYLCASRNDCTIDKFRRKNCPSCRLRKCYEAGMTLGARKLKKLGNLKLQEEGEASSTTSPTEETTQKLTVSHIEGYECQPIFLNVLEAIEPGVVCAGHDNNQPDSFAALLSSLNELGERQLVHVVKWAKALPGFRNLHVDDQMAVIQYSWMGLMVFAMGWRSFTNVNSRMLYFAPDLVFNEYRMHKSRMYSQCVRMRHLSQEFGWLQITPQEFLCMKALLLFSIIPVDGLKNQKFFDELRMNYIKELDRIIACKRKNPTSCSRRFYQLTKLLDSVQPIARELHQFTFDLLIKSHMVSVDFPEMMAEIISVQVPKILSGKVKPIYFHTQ

As to `C[C@](O)(CS(=O)(=O)c1ccc(F)cc1)C(=O)Nc1cc(C(F)(F)F)ccn1` [FC 4.125], the IC50 in data set [1] turned out to be 22.4 ± 41.8 µM. Also, the “Fold change*” value in data set [1] (Table 4, relative to CDX) came out at 0.016. The “Fold chg (LBD)” value in data set [1] (setting [4]) worked out at 0.016.
As for `C=CS(=O)(=O)C(c1ccc(NC(=O)[C@@](C)(O)CS(=O)(=O)c2ccc(F)cc2)cc1C(F)(F)F)S(=O)(=O)C=C` [FC 4.025], the IC50 on full length AR (setting [5]) was found to be 1.29 ± 1.29 µM; in data set [1] (setting [6]), 0.58 ± 0.11 µM. At full length AR (setting [4]), the “Fold chg (FL)” value is on record as 0.78. Also, the “Fold chg (LBD)” value in data set [1] (setting [4]) is on record as 0.62.
Regarding `C=CC(=O)Nc1ccc(NC(=O)[C@@](C)(O)CS(=O)(=O)c2ccc(F)cc2)cc1C(F)(F)F` [FC 4.039], the IC50 in data set [1] (setting [6]) worked out at 0.75 ± 0.26 µM. Besides, the “Fold chg (LBD)” value in data set [1] (setting [4]) is recorded as 0.48.
As for `CC(O)(CS(=O)(=O)c1ccc(F)cc1)C(=O)Nc1ccc(C#N)c(C(F)(F)F)c1` (stereo not shown) [bicalutamide], the tolerability result in data set [2] is on record as “well tolerated with very few side effects”.
Take `C[C@](O)(CS(=O)(=O)c1ccc(F)cc1)C(=O)Nc1cc(C(F)(F)F)c(C#N)cn1` [FC 3.077]: the “Fold chg (FL)” value on full length AR turned out to be 0.33. For the same molecule, in data set [1], the “Fold change*” value was determined as 0.74, the “Fold chg (LBD)” value was found to be 0.74 and the IC50 worked out at 0.49 ± 0.06 µM.
As to `C[C@](O)(CS(=O)(=O)c1ccc(F)cc1)C(=O)Nc1cccc(C(F)(F)F)c1` [FC 4.116], the figures for the IC50 (at full length AR (setting [5]); in data set [3]; in data set [1] (setting [6])) were 71.7 µM, 0.53 ± 0.27 µM and 2.53 ± 1.16 µM, respectively. The “Fold chg (FL)” value at full length AR (setting [4]) turned out to be 0.014. The “Fold change*” value in data set [1] (Table 4, relative to CDX) is given as 0.14. Moreover, in data set [1] (setting [4]), the “Fold chg (LBD)” value is recorded as 0.14.
As for `C[C@](O)(CS(=O)(=O)c1ccc(F)cc1)C(=O)Nc1ccc([N+](=O)[O-])c(C(F)(F)F)c1` [FC 4.127], on full length AR, the “Fold chg (FL)” value is 0.11 and the IC50 came out at 8.74 ± 15.8 µM. Moreover, in data set [1], the “Fold change*” value was found to be 0.05, the “Fold chg (LBD)” value worked out at 0.050 and the IC50 worked out at 7.26 ± 10.7 µM.
Consider `C[C@](O)(CS(=O)(=O)c1ccc(F)cc1)C(=O)Nc1cncc(C(F)(F)F)c1` [FC 4.126], for which the IC50 at full length AR (setting [5]) was determined as 12.4 ± 14.2 µM; in data set [3], 0.11 ± 0.02 µM; in data set [1] (setting [6]), 1.55 ± 0.41 µM. The “Fold chg (FL)” value on full length AR (setting [4]) is 0.08. In addition, the “Fold change*” value in data set [1] (Table 4, relative to CDX) was 0.23. For the same molecule, the “Fold chg (LBD)” value in data set [1] (setting [4]) is 0.23.

Values taken from US10053433B2, “Androgen receptor antagonists” (THE REGENTS OF THE UNIVERSITY OF CALIFORNIA, priority 2014, dated 2018).
